SMILES strings stand for the structures. ≈ marks a conversion by molar mass, not a printed value.

For one series, the target named is T1, HTR1A (Homo sapiens, UniProt P08908).
T1 sequence (P08908 1-422): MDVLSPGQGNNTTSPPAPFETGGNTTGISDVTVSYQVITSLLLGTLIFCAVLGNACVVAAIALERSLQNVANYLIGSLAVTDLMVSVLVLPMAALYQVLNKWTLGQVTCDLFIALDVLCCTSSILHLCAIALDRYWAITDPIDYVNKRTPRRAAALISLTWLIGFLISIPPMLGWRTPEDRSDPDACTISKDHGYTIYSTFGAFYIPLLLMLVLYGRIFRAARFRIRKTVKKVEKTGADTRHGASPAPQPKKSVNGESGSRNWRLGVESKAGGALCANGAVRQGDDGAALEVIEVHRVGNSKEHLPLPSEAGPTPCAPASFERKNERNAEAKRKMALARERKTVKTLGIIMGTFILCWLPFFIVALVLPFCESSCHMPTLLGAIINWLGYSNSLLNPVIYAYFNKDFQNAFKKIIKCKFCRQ
The series can be described thus: Off target selectivity assay, HTR1A. Particulars: dose response, concentrations up to 10 μM; read-out: IC50 or EC50 on HTR1A. In kind it is cell-based. The method, then: (§1) Final assay vehicle concentration was 1%.
(§2) For Gi coupled GPCRs, EC80 forskolin was included.
(§3) DMSO concentration for all readouts is ≤0.2%.
(§4) Probenicid was prepared fresh. Cells were loaded with dye prior to testing.

The next series deals with T2, ADRA2A (Homo sapiens, UniProt P08913).
T2 sequence (P08913 1-465): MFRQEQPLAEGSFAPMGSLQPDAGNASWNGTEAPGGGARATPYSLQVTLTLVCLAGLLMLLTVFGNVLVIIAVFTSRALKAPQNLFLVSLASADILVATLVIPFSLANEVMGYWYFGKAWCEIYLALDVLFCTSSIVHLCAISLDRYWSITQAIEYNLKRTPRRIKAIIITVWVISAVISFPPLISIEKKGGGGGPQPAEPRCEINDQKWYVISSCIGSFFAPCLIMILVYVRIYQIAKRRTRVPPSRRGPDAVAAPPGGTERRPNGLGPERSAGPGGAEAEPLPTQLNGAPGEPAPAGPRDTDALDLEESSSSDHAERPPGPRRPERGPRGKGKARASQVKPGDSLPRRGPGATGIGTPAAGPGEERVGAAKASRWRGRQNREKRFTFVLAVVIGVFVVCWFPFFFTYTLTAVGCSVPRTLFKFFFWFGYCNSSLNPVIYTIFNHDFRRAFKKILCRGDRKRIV
Nature of the series: Off target selectivity assay, ADRA2A. In kind it is cell-based. Particulars: dose response, concentrations up to 10 μM; read-out: IC50 or EC50 on ADRA2A. The method, then:
as §1, §2, §3, §4

For a further series, the target named is T3, OATP1B3 (Homo sapiens, UniProt Q9NPD5).
T3 sequence (Q9NPD5 1-702): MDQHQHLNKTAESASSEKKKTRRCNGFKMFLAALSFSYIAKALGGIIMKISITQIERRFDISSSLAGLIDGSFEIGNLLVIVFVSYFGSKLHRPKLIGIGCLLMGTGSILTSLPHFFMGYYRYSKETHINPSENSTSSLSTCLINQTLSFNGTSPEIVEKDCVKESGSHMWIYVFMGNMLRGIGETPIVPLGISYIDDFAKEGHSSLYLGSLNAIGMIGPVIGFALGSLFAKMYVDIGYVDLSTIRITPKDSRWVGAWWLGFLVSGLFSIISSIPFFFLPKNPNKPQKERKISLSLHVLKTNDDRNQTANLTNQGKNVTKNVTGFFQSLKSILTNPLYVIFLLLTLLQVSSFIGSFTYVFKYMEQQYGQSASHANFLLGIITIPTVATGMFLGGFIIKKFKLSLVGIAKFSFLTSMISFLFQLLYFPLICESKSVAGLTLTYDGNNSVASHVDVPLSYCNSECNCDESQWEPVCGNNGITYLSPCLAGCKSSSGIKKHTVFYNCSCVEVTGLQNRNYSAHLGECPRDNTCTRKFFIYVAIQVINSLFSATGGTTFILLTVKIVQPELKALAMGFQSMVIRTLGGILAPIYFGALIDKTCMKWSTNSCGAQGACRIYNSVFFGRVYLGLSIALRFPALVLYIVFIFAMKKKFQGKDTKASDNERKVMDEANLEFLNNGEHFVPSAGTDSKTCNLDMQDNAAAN
Nature of the series: Drug transporter fluorometric inhibition, OATP1B3. In kind it is in vitro ADME. The protocol:
Drug transporter (fluorometric inhibition)
The percent of control was calculated using the following equation. The percent of inhibition was calculated by subtracting the percent of control from 100. The IC50 value (concentration causing a half-maximal inhibition of the control value) was determined by non-linear regression analysis of the concentration-response curve using the Hill equation.
Compound is the individual reading in the presence of the test compound. T1 is the mean reading in the absence of the test compound. Background (for P-gp and BCRP) is the mean reading in the presence of the highest effective concentration of the reference inhibitor. Background (for OATP1B1, OATP1B3, OAT1, OAT3, and OCT2) is the mean reading in the absence of both the test compound and the substrate.

A further series concerns the target HTR2B (Homo sapiens, UniProt P41595). The series can be described thus: Off target selectivity assay, HTR2B. In kind it is cell-based. Particulars: dose response, concentrations up to 10 μM; read-out: IC50 or EC50 on HTR2B. The protocol:
as §1, §2, §3, §4

The nature of series [1]: Kinetic solubility measurement in bio-relevant media. In kind it is physicochemical. The following applies: FeSSIF.
The test system of the next series is CYP3A4. The series can be described thus: Cytochrome P450 induction in hepatocytes, CYP3A4. In kind it is in vitro ADME. The following applies: hepatocytes from three different human cell lines; 1 μM, 10 μM and 100 μM.
A short description of series [2]: Solubility measurement in pH buffers. In kind it is physicochemical.
For a further series, the target named is OPRD1 (Homo sapiens, UniProt P41143). Nature of the series: Off target selectivity assay, OPRD1. The following applies: dose response, concentrations up to 10 μM; read-out: IC50 or EC50 on OPRD1. In kind it is cell-based. The method, then: as §1, §2, §3, §4
Sequence of OPRD1 (P41143 whole entry): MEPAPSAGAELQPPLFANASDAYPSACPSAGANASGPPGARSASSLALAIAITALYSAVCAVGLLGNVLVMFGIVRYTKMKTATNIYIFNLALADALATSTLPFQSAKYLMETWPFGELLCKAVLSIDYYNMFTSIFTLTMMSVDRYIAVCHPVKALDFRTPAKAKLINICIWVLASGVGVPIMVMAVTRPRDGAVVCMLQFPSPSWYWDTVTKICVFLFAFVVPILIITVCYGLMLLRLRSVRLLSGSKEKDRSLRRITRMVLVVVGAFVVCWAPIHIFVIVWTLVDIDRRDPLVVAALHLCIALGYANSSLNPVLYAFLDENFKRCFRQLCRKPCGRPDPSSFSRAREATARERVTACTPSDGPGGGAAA

Sequence of HTR2B (P41595 whole entry): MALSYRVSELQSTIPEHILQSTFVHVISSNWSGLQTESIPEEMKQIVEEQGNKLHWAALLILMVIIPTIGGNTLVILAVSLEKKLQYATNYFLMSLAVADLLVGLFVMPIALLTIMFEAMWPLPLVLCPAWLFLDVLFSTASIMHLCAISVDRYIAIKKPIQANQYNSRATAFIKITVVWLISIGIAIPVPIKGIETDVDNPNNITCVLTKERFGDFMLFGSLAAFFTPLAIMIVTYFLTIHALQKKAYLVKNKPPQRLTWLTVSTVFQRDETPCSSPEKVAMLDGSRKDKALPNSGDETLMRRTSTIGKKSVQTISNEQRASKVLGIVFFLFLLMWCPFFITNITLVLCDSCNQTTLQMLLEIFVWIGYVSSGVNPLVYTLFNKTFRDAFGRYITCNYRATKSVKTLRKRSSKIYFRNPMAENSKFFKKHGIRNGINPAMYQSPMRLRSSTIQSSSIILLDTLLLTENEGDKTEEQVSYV

Take `CC(=O)c1ccc2c(c1)[C@H]1C=CC[C@H]1[C@@H](c1cc3c(cc1Br)OCO3)N2` [RSS G-1, 1-((3aR,4S,9bS)-4-(6-bromobenzo[d][1,3]dioxol-5-yl)-3a,4,5,9b-tetrahydro-3H-cyclopenta[c]quinolin-8-yl)ethan-1-one]: the half-maximal inhibitory concentration (IC50) was determined as 2100 nM at HTR1A and 2070 nM at ADRA2A. Besides, testing at 10 µM at OATP1B3 gave an inhibition of 74.3%.
With `CC(=O)c1ccc2c(c1)[C@@H]1C=CC[C@@H]1[C@H](c1cc3c(cc1Br)OCO3)N2` (single isomer, unassigned) [SRR G-1], the IC50 on HTR2B is 8200 nM; on OPRD1, 870 nM. Moreover, the “form change in the three bio-relevant media” value in series [1] (SGF, FaSSIF, after 1, 2, 4 and 24 hrs) is reported as “No form change was observed”. Further, in series [1] (pH 5, thermodynamic from solid, 37° C., read-out: highest solubility, observed in FeSSIF), the solubility is roughly 37 µg/mL (≈ 89.7 µM). Also, the CYP3A4 induction result in the series on CYP3A4 is listed as “induced at only 10 μM in 2 of the 3 cell lines”. Also, the solubility at 24 h in series [2] (pH 2, aqueous buffer, thermodynamic from solid, all pH buffers 2.0 to 8.0, 37° C., 24 hrs, read-out: solubility at pH 2.0-8.0) is less than 0.72 µg/mL. Besides, the “form change in all the pH buffers” value in series [2] (pH 2.0 to 8.0, after 24 hrs) is on record as “No form change was observed”.

The term IC50 denotes the concentration needed to halve the response being measured. The inhibition is the drop in the measured response relative to a control, in per cent. A higher inhibition goes with a strong effect. The term solubility denotes the dissolved amount per volume that the medium holds.

These data come from patent publication US10934277B2, “Enantiomerically purified GPER agonist for use in treating disease states and conditions” (Linnaeus Therapeutics, Inc., priority 2018, dated 2021).
